The kinase profiling compilation of Christmann-Franck et al. (2016)

Legend:
Test in all cases: radiometric filter-binding kinase assay, Kinaseprofiler
ABL1 (human) = ABL1 (human) (UniProt P00519); details: ATP 10 µM
CAMK1D (human) = CAMK1D (human) (UniProt Q8IU85); details: ATP 15 µM
CAMK2G (human) = CAMK2G (human) (UniProt Q13555); details: ATP 10 µM
CDK2 CCNA2 (human) = CDK2 CCNA2 (human) (UniProt P24941+P20248); details: ATP 45 µM
CDK2 CCNE1 (human) = CDK2 CCNE1 (human) (UniProt P24941+P24864); details: ATP 120 µM
CHEK2 (human) = CHEK2 (human) (UniProt O96017); details: ATP 70 µM
CSF1R (human) = CSF1R (human) (UniProt P07333); details: ATP 200 µM
DAPK3 (human) = DAPK3 (human) (UniProt O43293); details: ATP 15 µM
EPHA8 (human) = EPHA8 (human) (UniProt P29322); details: ATP 200 µM
FLT3 (human) = FLT3 (human) (UniProt P36888); details: ATP 200 µM
GSG2 (human) = GSG2 (human) (UniProt Q8TF76); details: ATP 70 µM
HIPK1 (human) = HIPK1 (human) (UniProt Q86Z02); details: ATP 45 µM
MAPK13 (human) = MAPK13 (human) (UniProt O15264); details: ATP 15 µM
NEK6 (human) = NEK6 (human) (UniProt Q9HC98); details: ATP 45 µM
NTRK1 (human) = NTRK1 (human) (UniProt P04629); details: ATP 120 µM
PLK3 (human) = PLK3 (human) (UniProt Q9H4B4); details: ATP 70 µM
[1] = target: PRKAA1 PRKAB1 PRKAG1 (human) (UniProt P54619+Q13131+Q9Y478); details: ATP 45 µM
PRKCA (human) = PRKCA (human) (UniProt P17252); details: ATP 45 µM
PRKCB2 (human) = PRKCB2 (human) (UniProt P05771); details: ATP 10 µM
PRKCI (human) = PRKCI (human) (UniProt P41743); details: ATP 155 µM
PTK6 (human) = PTK6 (human) (UniProt Q13882); details: ATP 15 µM
RPS6KA4 KD1 KD2 (human) = RPS6KA4 KD1 KD2 (human) (UniProt O75676); details: ATP 45 µM
RPS6KA6 KD1 KD2 (human) = RPS6KA6 KD1 KD2 (human) (UniProt Q9UK32); details: ATP 45 µM
TAOK1 (human) = TAOK1 (human) (UniProt Q7L7X3); details: ATP 10 µM
TBK1 (human) = TBK1 (human) (UniProt Q9UHD2); details: ATP 155 µM
YES1 (human) = YES1 (human) (UniProt P07947); details: ATP 45 µM
Sequence of YES1 (human) (P07947 whole entry, looked up): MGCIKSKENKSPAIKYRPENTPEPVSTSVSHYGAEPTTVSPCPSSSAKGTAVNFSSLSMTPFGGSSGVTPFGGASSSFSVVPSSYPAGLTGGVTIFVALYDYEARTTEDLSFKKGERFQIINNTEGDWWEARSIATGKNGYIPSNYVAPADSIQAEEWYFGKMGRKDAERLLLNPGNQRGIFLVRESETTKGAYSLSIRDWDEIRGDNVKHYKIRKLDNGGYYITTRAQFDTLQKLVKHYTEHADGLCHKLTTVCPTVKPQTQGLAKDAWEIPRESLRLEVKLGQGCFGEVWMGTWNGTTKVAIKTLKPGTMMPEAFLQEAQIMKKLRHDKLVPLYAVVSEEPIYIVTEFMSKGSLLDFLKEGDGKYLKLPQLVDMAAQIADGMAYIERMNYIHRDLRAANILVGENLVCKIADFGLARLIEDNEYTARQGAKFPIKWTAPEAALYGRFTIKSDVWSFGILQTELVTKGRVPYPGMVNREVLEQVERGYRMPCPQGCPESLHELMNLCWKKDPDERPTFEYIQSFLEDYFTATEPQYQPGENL

Sequence of TBK1 (human) (Q9UHD2 whole entry, looked up): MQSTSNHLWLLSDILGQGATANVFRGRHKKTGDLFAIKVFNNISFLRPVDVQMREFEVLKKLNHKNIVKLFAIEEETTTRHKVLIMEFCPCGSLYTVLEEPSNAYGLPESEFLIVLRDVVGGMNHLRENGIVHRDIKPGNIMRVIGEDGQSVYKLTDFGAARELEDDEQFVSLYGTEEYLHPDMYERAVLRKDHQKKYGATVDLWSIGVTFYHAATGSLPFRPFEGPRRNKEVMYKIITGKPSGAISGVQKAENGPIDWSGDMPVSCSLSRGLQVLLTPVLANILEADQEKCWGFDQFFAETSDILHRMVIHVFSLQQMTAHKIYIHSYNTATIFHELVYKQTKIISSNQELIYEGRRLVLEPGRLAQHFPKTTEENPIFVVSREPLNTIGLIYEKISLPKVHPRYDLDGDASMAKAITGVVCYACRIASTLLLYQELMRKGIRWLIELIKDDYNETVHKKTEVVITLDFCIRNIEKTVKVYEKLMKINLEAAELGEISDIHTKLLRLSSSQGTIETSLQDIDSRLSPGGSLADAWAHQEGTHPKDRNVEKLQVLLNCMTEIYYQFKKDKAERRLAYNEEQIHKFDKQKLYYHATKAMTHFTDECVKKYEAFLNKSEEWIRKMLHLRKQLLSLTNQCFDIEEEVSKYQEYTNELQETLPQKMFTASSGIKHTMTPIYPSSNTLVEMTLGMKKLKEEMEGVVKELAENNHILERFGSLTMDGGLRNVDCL
Sequence of NTRK1 (human) (P04629 whole entry, looked up): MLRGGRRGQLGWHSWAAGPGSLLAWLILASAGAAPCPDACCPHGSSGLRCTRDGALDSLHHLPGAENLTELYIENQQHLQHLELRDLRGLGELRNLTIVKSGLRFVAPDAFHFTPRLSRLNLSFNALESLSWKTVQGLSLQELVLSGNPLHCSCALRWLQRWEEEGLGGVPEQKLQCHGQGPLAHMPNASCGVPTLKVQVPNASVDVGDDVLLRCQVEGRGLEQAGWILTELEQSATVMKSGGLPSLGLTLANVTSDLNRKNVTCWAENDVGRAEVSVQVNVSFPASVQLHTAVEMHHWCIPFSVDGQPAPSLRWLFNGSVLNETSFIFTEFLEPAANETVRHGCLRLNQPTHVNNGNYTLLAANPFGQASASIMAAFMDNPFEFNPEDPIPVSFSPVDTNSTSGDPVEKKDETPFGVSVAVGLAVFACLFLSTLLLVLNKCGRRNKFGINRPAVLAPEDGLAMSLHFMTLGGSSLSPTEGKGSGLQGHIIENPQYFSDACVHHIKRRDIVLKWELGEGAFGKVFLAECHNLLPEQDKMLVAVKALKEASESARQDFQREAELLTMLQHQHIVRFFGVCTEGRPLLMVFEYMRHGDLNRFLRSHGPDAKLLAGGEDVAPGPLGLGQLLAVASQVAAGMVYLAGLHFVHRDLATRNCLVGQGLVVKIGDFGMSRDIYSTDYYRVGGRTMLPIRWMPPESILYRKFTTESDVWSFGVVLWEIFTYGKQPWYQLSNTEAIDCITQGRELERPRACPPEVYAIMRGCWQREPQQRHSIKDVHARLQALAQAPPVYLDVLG
Sequence of NEK6 (human) (Q9HC98 whole entry, looked up): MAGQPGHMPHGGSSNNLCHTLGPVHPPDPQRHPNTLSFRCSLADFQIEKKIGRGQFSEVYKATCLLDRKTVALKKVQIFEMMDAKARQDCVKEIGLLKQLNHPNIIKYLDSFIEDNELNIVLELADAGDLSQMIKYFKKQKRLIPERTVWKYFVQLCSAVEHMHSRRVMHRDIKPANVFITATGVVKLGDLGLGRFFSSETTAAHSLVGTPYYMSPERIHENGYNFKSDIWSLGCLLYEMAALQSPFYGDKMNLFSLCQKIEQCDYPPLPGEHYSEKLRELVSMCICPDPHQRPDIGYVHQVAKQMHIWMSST
Sequence of GSG2 (human) (Q8TF76 whole entry, looked up): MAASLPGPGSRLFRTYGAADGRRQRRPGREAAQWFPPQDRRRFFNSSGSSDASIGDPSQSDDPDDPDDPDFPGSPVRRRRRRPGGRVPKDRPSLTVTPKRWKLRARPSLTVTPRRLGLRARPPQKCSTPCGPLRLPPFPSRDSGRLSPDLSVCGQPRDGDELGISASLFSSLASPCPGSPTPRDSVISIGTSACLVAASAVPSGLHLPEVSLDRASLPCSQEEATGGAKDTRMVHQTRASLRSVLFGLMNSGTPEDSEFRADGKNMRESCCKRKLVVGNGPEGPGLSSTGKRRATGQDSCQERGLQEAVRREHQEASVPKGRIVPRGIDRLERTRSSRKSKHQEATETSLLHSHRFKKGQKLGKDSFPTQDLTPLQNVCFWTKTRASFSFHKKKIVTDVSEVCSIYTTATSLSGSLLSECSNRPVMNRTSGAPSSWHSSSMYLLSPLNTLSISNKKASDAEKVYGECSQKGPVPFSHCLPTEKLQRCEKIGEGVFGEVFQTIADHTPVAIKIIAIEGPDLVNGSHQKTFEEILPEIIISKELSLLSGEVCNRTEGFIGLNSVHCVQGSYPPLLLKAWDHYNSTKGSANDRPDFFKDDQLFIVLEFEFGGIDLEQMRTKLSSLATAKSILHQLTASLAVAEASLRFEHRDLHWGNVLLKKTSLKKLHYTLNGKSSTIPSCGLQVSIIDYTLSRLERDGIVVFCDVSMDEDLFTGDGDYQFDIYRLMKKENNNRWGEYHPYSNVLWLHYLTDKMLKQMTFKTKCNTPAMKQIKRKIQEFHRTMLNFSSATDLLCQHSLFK
Sequence of PRKCB2 (human) (P05771 whole entry, looked up): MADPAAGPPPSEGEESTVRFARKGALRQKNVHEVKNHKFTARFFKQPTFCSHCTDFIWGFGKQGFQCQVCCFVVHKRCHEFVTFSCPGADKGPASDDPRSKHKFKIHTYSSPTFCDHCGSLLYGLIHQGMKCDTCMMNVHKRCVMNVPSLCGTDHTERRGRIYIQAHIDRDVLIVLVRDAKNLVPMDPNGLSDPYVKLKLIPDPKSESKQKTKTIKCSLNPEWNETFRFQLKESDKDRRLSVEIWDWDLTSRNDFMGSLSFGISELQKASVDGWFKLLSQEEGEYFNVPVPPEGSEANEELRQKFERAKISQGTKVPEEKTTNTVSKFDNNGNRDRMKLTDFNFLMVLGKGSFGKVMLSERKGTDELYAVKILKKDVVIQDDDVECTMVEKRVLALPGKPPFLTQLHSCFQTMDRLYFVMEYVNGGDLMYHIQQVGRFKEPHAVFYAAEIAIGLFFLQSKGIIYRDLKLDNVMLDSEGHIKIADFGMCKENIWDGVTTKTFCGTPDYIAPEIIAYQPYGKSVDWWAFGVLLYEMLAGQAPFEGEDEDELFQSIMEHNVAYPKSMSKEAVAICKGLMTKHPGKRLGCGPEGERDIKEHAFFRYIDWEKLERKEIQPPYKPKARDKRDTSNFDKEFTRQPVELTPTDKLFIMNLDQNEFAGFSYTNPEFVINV
Sequence of HIPK1 (human) (Q86Z02 whole entry, looked up): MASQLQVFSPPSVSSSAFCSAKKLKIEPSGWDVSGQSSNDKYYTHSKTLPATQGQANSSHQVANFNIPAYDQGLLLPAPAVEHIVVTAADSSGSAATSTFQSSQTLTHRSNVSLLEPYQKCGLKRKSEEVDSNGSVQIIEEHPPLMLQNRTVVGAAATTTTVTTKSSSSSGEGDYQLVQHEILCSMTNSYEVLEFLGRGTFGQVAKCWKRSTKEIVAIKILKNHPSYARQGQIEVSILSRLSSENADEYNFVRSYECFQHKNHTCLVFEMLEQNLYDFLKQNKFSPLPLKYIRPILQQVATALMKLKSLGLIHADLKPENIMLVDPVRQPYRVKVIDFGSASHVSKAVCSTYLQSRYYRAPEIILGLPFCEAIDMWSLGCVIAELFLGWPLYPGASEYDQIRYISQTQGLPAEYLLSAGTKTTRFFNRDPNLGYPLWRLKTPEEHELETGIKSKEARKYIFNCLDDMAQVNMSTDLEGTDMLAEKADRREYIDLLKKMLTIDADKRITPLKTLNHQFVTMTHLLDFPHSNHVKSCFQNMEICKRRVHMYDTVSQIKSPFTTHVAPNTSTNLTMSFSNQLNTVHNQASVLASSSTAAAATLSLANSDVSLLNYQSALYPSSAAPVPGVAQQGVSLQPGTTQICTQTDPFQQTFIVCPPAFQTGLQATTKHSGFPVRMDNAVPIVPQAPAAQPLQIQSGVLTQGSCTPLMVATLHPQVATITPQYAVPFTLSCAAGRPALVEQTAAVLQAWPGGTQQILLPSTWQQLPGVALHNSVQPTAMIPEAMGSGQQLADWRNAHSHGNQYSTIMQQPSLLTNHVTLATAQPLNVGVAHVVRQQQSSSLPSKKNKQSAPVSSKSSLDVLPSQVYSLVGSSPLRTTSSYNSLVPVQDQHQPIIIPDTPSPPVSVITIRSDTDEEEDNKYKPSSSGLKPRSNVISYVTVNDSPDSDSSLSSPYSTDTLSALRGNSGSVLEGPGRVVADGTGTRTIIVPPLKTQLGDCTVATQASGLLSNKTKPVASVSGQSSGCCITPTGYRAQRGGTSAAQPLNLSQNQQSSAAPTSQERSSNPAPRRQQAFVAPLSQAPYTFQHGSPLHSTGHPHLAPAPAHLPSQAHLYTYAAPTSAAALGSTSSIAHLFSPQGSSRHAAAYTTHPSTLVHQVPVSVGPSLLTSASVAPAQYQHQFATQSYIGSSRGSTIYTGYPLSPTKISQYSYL

residual activity (ABL1 (human); compound 1.0 µM): 83%
residual activity (ABL1 (human); compound 10.0 µM): 56%
residual activity (CAMK1D (human); compound 1.0 µM): 70%
residual activity (CAMK1D (human); compound 10.0 µM): 38%
residual activity (CAMK2G (human); compound 1.0 µM): 37%
residual activity (CAMK2G (human); compound 10.0 µM): 8%
residual activity (CDK2 CCNA2 (human); compound 1.0 µM): 59%
residual activity (CDK2 CCNA2 (human); compound 10.0 µM): 36%
residual activity (CDK2 CCNE1 (human); compound 1.0 µM): 8%
residual activity (CDK2 CCNE1 (human); compound 10.0 µM): 3%
residual activity (CHEK2 (human); compound 1.0 µM): 29%
residual activity (CHEK2 (human); compound 10.0 µM): 2%
residual activity (CSF1R (human); compound 1.0 µM): 36%
residual activity (CSF1R (human); compound 10.0 µM): 9%
residual activity (DAPK3 (human); compound 1.0 µM): 87%
residual activity (DAPK3 (human); compound 10.0 µM): 45%
residual activity (EPHA8 (human); compound 1.0 µM): 92%
residual activity (EPHA8 (human); compound 10.0 µM): 76%
residual activity (FLT3 (human); compound 1.0 µM): 6%
residual activity (FLT3 (human); compound 10.0 µM): 1%
residual activity (GSG2 (human); compound 1.0 µM): 10%
residual activity (GSG2 (human); compound 10.0 µM): -1%
residual activity (HIPK1 (human); compound 1.0 µM): 93%
residual activity (HIPK1 (human); compound 10.0 µM): 62%
residual activity (MAPK13 (human); compound 1.0 µM): 96%
residual activity (MAPK13 (human); compound 10.0 µM): 73%
residual activity (NEK6 (human); compound 1.0 µM): 107%
residual activity (NEK6 (human); compound 10.0 µM): 101%
residual activity (NTRK1 (human); compound 1.0 µM): 10%
residual activity (NTRK1 (human); compound 10.0 µM): -1%
residual activity (PLK3 (human); compound 1.0 µM): 94%
residual activity (PLK3 (human); compound 10.0 µM): 82%
residual activity ([1]; compound 1.0 µM): 64%
residual activity ([1]; compound 10.0 µM): 24%
residual activity (PRKCA (human); compound 1.0 µM): 98%
residual activity (PRKCA (human); compound 10.0 µM): 73%
residual activity (PRKCB2 (human); compound 1.0 µM): 108%
residual activity (PRKCB2 (human); compound 10.0 µM): 102%
residual activity (PRKCI (human); compound 1.0 µM): 117%
residual activity (PRKCI (human); compound 10.0 µM): 107%
residual activity (PTK6 (human); compound 1.0 µM): 95%
residual activity (PTK6 (human); compound 10.0 µM): 95%
residual activity (RPS6KA4 KD1 KD2 (human); compound 1.0 µM): 76%
residual activity (RPS6KA4 KD1 KD2 (human); compound 10.0 µM): 36%
residual activity (RPS6KA6 KD1 KD2 (human); compound 1.0 µM): 43%
residual activity (RPS6KA6 KD1 KD2 (human); compound 10.0 µM): 52%
residual activity (TAOK1 (human); compound 1.0 µM): 69%
residual activity (TAOK1 (human); compound 10.0 µM): 25%
residual activity (TBK1 (human); compound 1.0 µM): 35%
residual activity (TBK1 (human); compound 10.0 µM): 11%
residual activity (YES1 (human); compound 1.0 µM): 98%
residual activity (YES1 (human); compound 10.0 µM): 51%
SMILES: O=C1c2ccccc2-c2n[nH]c3cccc1c23
